From US20180148418A1, “AMIDO-SUBSTITUTED CYCLOHEXANE DERIVATIVES” (Bayer Pharma Aktiengesellschaft, priority 2015, published 2018)

Key:
[1] = system: HEK293 cells cotransfected with the FOP control vector; assay: HEK293 FOP assay (control reporter with non-functional TCF elements); type: cell-based; conditions: Homo sapiens, 16 hours
Description: In a parallel approach, HEK293 cells were cotransfected with the FOP control vector and pcDNA3. The FOP vector is identical to the TOP construct, but it contains instead of functional TCF elements a randomized, non-functional sequence. For this transfection a stable transfected cell line was generated as well, based on selection with Geneticin (1 mg/ml).
(§1) In preparation of the assay, the two cell lines were plated 24 h before beginning the test at 10000 cells per well in a 384 micro titre plate (MTP) in 30 μl growth medium. […] The recombinant human Wnt-3a was thereby applied between 2500 and 5 ng/ml in two-fold dilution steps.
(§2) Selective inhibitory activity for small molecules on the wildtype Wnt pathway was determined after parallel incubation of both (TOP and FOP) HEK293 reporter cell lines with a compound dilution series from 50 μM to 15 nM in steps of 3.16-fold dilutions in CAFTY buffer (130 mM sodium chloride, 5 mM potassium chloride, 20 mM HEPES, 1 mM magnesium chloride, 5 mM sodium bicarbonate, pH 7.4) containing 2 mM Ca^2+ and 0.01% BSA.
(§3) The compounds were thereby serially prediluted in 100% DMSO and thereafter 50 fold into the CAFTY compound dilution buffer (described above).

TNKS2 = target: T1, TNKS2 (Homo sapiens, UniProt Q9H2K2); assay: TNKS2 Assay B (auto-parsylation, [3H]-NAD+ SPA); type: biochemical; conditions: 6 nM TNKS2, auto-parsylation, over night at room temperature
T1 construct: purchased BPS Bioscience, San Diego, USA 80572 (TNKS2 Histone Ribosylation Assay Kit)
T1 sequence (Q9H2K2 1-1166): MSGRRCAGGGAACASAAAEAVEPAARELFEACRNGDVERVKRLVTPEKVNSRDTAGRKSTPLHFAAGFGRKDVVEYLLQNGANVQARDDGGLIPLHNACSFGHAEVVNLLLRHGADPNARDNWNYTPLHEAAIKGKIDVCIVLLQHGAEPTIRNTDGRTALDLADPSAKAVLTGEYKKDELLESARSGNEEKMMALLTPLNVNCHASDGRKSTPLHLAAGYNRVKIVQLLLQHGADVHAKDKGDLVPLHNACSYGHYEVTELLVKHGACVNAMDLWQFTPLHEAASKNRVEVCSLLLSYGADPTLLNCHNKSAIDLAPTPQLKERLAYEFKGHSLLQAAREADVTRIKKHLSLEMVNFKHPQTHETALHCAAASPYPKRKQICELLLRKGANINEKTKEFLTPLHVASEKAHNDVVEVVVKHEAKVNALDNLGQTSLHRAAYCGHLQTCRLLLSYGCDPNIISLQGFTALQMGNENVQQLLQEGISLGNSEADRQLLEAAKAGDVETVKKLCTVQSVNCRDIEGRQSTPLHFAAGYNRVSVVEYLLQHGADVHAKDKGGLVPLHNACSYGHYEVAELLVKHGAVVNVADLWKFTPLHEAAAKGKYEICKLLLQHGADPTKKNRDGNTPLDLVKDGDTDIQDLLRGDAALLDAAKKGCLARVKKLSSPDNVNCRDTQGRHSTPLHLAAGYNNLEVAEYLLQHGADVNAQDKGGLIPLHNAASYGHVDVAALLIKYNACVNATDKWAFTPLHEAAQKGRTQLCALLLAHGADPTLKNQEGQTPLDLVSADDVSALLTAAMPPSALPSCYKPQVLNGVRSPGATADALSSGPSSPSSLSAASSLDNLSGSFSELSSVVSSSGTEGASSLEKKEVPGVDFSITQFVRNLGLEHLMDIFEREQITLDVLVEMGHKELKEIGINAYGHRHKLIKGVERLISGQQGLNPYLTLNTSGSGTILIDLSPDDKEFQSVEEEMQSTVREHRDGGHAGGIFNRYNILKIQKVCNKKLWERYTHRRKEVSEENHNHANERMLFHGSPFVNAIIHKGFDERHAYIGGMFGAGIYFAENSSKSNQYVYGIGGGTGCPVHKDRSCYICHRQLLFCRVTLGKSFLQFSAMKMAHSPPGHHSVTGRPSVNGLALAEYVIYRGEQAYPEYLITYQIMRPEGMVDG
Description: The potency of selected compounds according to the invention was assessed applying a modified in vitro inhibition assay. Here, the TNKS2 catalyzed NAD^+-dependent ribosylation of the enzyme itself (auto-parsylation) was detected using [^3H]-NAD^+ as substrate and applying the scintillation proximity assay (SPA) method to detect tritium-labeled, parsylated TNKS2. The intensity of the readout signal is proportional to the incorporated [^3H]-NAD^+. Inhibition of TNKS2 leads to a decreased incorporation of [^3H]-NAD^+ and consequently to a lower readout signal intensity. The concentration of a test compound which inhibits the enzyme activity by 50% (corresponds to half of the normed readout signal intensity) is reported as IC50.
Protocol Auto-Parsylation Assay
The assay was conducted in a 96 well MTP format with the identical TNKS2 enzyme sample and NAD^+ sample as in the histone ribosylation assay with the following modifications: TNKS2 enzyme sample was diluted with a modified assay buffer (50 mM MES pH 7.0, 1 mM DTT, 0.01% Triton X-100) to a final concentration of 6 nM TNKS2 and 10×NAD^+ solution was diluted with the modified assay buffer (s. above) to a final 0.445×NAD^+ solution doped with 100 Bq/μl [^3H]-NAD^+[Catalog #NET443H050UC, Perkin Elmer, Waltham, Mass., USA]. Substrate solution (10 μl) was incubated with different test compound concentrations (2.5 μl in 10% DMSO in modified assay buffer) or control (2.5 μl 10% DMSO in modified assay buffer only) and enzyme (10 μl) over night at room temperature. Incorporated tritium was measured after addition of 50 ul SPA beads (1 mg/ml) [Catalog #RPNQ0095 20 mg/ml, Perkin Elmer, Waltham, Mass., USA; diluted 1:10 with Dulbecco's phosphate buffered saline, PBS Catalog #D8537, Sigma-Aldrich, Steinheim, Germany] and detection of the photon emission with a beta count plate reader [Wallac MicroBeta®, Perkin Elmer, Waltham, Mass., USA].

[2] = system: wildtype Wnt signaling cascade; assay: HEK293 TOP assay (Super TopFlash luciferase reporter, Wnt-3a stimulated); type: cell-based; conditions: Homo sapiens, HEK293, 16 h, HEK293 TOP reporter cells, Wnt3a at EC50, 16 hours
Excerpt: 7.1 Measurement of the Inhibitory Activity of Selected Compounds on the Wildtype Wnt Signaling Cascade: HEK293 TOP/FOP Assay
In order to discover and characterize small molecules which inhibit the wildtype Wnt pathway, a cellular reporter assay was employed. The corresponding assay cell was generated by transfection of the mammalian cell line HEK293 (ATCC, #CRL-1573) with the Super TopFlash vector (Morin, Science 275, 1997, 1787-1790; Molenaar et al., Cell 86 (3), 1996, 391-399). The HEK293 cell line is cultivated at 37° C. and 5% CO2 in DMEM (Life Technologies, #41965-039), supplemented with 2 mM glutamine, 20 mM HEPES, 1.4 mM pyruvate, 0.15% Na-bicarbonate and 10% foetal bovine serum (GIBCO, #10270). Stable transfectants were generated by selection with 300 μg/ml Hygromycin.
as §1, §2, §3

SMILES | IC50 (TNKS2) | IC50 [2] | IC50 [1]
Cc1cc(C)n2nc(C)c(C(=O)N[C@H]3CC[C@@]4(CCN(c5ccc(F)cc5Cl)C4=O)CC3)c2n1 [Example 227, N-[(trans)-2-(2-chloro-4-fluorophenyl)-1-oxo-2-azaspiro[4.5]dec-8-yl]-2,5,7-trimethylpyrazolo[1,5-a]pyrimidine-3-carboxamide] | 150 nM | 88 nM | ≥ 50000 nM
O=C(N[C@H]1CC[C@@]2(CCN(c3ccc(F)cc3Cl)C2=O)CC1)c1n[nH]c2cccnc12 [Example 228, N-[(trans)-2-(2-chloro-4-fluorophenyl)-1-oxo-2-azaspiro[4.5]dec-8-yl]-1H-pyrazolo[4,3-b]pyridine-3-carboxamide] | 420 nM | 60 nM | ≥ 500 nM
O=C(N[C@H]1CC[C@@]2(CCN(c3ccc(F)cc3Cl)C2=O)CC1)c1cnn2ccccc12 [Example 230, N-[(trans)-2-(2-chloro-4-fluorophenyl)-1-oxo-2-azaspiro[4.5]dec-8-yl]pyrazolo[1,5-a]pyridine-3-carboxamide] | 280 nM | 30 nM | ≥ 500 nM
O=C(N[C@H]1CC[C@@]2(CCN(c3ccc(F)cc3Cl)C2=O)CC1)c1cnn2ccc(O)nc12 [Example 234, N-[(trans)-2-(2-chloro-4-fluorophenyl)-1-oxo-2-azaspiro[4.5]dec-8-yl]-5-hydroxypyrazolo[1,5-a]pyrimidine-3-carboxamide] | 210 nM | 590 nM | ≥ 50000 nM
O=C(N[C@H]1CC[C@@]2(CCN(c3ccc(F)cc3Cl)C2=O)CC1)c1cnn2c(O)ccnc12 [Example 235, N-[(trans)-2-(2-chloro-4-fluorophenyl)-1-oxo-2-azaspiro[4.5]dec-8-yl]-7-hydroxypyrazolo[1,5-a]pyrimidine-3-carboxamide] | 29 nM | 230 nM | ≥ 500 nM
O=C(N[C@H]1CC[C@@]2(CCN(c3ccccc3)C2=O)CC1)c1cnn2cccnc12 [Example 238, N-[(trans)-1-oxo-2-phenyl-2-azaspiro[4.5]dec-8-yl]pyrazolo[1,5-a]pyrimidine-3-carboxamide] | 400 nM | 43 nM | ≥ 500 nM
Cc1cc(C)n2ncc(C(=O)N[C@H]3CC[C@@]4(CCN(c5ccccc5)C4=O)CC3)c2n1 [Example 239, 5,7-dimethyl-N-[(trans)-1-oxo-2-phenyl-2-azaspiro[4.5]dec-8-yl]pyrazolo[1,5-a]pyrimidine-3-carboxamide] | 570 nM | 73 nM | ≥ 500 nM
O=C(N[C@H]1CC[C@@]2(CCN(c3ccccc3)C2=O)CC1)c1cnc2cccnn12 [Example 240, N-[(trans)-1-oxo-2-phenyl-2-azaspiro[4.5]dec-8-yl]imidazo[1,2-b]pyridazine-3-carboxamide] | 510 nM | 29 nM | ≥ 500 nM
COCc1cc(C)n2ncc(C(=O)N[C@H]3CC[C@@]4(CCN(c5c(F)cc(F)cc5Cl)C4=O)CC3)c2n1 [Example 242, N-[(trans)-2-(2-chloro-4,6-difluorophenyl)-1-oxo-2-azaspiro[4.5]dec-8-yl]-5-(methoxymethyl)-7-methylpyrazolo[1,5-a]pyrimidine-3-carboxamide] | 21 nM | 7.1 nM | ≥ 50000 nM

Stronger by IC50 (TNKS2), values ahead:

IC50 (TNKS2) | IC50 [2] | SMILES | IC50 [1]
3.8 nM | 8 nM | O=C(N[C@H]1CC[C@@]2(CCN(c3ccc(F)cc3Cl)C2=O)CC1)c1cnn2ccc(N3CCOCC3)nc12 [Example 231, N-[(trans)-2-(2-chloro-4-fluorophenyl)-1-oxo-2-azaspiro[4.5]dec-8-yl]-5-(morpholin-4-yl)pyrazolo[1,5-a]pyrimidine-3-carboxamide] | ≥ 500 nM
19 nM | 350 nM | O=C(N[C@H]1CC[C@@]2(CCN(c3ccc(F)cc3Cl)C2=O)CC1)c1c[nH]c2cccnc12 [Example 236, N-[(trans)-2-(2-chloro-4-fluorophenyl)-1-oxo-2-azaspiro[4.5]dec-8-yl]-1H-pyrrolo[3,2-b]pyridine-3-carboxamide] | ≥ 50000 nM
8.9 nM | 0.14 nM | COCCc1cnc2c(C(=O)N[C@H]3CC[C@@]4(CCN(c5ccc(F)cc5Cl)C4=O)CC3)cnn2c1 [Example 237, N-[(trans)-2-(2-chloro-4-fluorophenyl)-1-oxo-2-azaspiro[4.5]dec-8-yl]-6-(2-methoxyethyl)pyrazolo[1,5-a]pyrimidine-3-carboxamide] | ≥ 50000 nM
19 nM | 0.99 nM | COCc1cc(C)nc2c(C(=O)N[C@H]3CC[C@@]4(CCN(c5c(F)cc(F)cc5Cl)C4=O)CC3)cnn12 [Example 241, N-[(trans)-2-(2-chloro-4,6-difluorophenyl)-1-oxo-2-azaspiro[4.5]dec-8-yl]-7-(methoxymethyl)-5-methylpyrazolo[1,5-a]pyrimidine-3-carboxamide] | 8100 nM
11 nM | 1.5 nM | O=C(N[C@H]1CC[C@@]2(CCN(c3c(F)cc(F)cc3Cl)C2=O)CC1)c1cnc2cccnn12 [Example 243, N-[(trans)-2-(2-chloro-4,6-difluorophenyl)-1-oxo-2-azaspiro[4.5]dec-8-yl]imidazo[1,2-b]pyridazine-3-carboxamide] | ≥ 50000 nM
